# Read-outs that look alike come from different tables or passages of the source.
# Tests used:
# [1] = oral; cited from earlier work
# [2] = Procedure: 1 gram mole equivalent of (S)-2,6-diaminohexanoic acid is added to the above ethyl acetate solution and stirred at ambient room temperature.
# [3] = system: CYP3A4; conditions: cited from earlier work
# [4] = cited from earlier work
structure (smiles),measurement,setting,value
"CC(C)c1c(C(=O)Nc2ccccc2)c(-c2ccccc2)c(-c2ccc(F)cc2)n1CC[C@@H](O)C[C@@H](O)CC(=O)O (relative stereo) [atorvastatin, [R—(R*,R*)]-2-(4-fluorophenyl)-β,δ-dihydroxy-5-((1-methylethyl)-3-phenyl-4-[(phenylamino)-carbonyl]-1H-pyrrole-1-heptanoic acid]",orally administered drug absorbed from the intestine,[1],about 30%
CC(C)c1nc(N(C)S(C)(=O)=O)nc(-c2ccc(F)cc2)c1/C=C/[C@@H](O)C[C@@H](O)CC(=O)O [Rosuvastatin acid],solubility in water (in words),[2],water insoluble
CC(C)c1c(C(=O)Nc2ccccc2)c(-c2ccccc2)c(-c2ccc(F)cc2)n1CC[C@@H]1C[C@@H](O)CC(=O)O1 [atorvastatin lactone],affinity to CYP3A4 compared with the acid,[3],significantly higher affinity
same,"CYP-dependent metabolism to ortho-hydroxy metabolite, compared with atorvastatin acid",[3]; human liver microsomes,20 fold
same,"CYP-dependent metabolism to para-hydroxy metabolite, compared with atorvastatin acid",[3]; human liver microsomes,83 fold
CC[C@H](CC[C@@H](C)[C@H]1CC[C@H]2[C@@H]3CC=C4C[C@@H](O)CC[C@]4(C)[C@H]3CC[C@]12C)C(C)C [beta sitosterol],beta sitosterol soluble in triolein oil,[4]; linked as an ester to decanoic acid,1.1%
same,beta sitosterol soluble in triolein oil,[4]; linked as an ester to lauric acid,0.6%
same,beta sitosterol soluble in triolein oil,[4]; linked as an ester to palmitic acid,0.1%
